US11066414B2, “Cot modulators and methods of use thereof” (Gilead Sciences, Inc., priority 2015, dated 2021)
Read-outs that look alike come from different tables or passages of the source.

What was measured:
[1] = target: Human Cot (Homo sapiens (Human), UniProt P41279); experiment: High Throughput Cot Biochemical Assay; details: Cot HTRF (TR-FRET) biochemical assay
[2] = system: TNFα; experiment: Cot Monocyte TNFα Cell Based Assay
[3] = Homo sapiens, Monocyte, read-out: EC50 TNF, LPS-stimulated human monocytes, TNFα
[4] = read-out: EC50 TNF, LPS-stimulated human monocytes, TNFα

Chain of Human Cot (P41279 30-397): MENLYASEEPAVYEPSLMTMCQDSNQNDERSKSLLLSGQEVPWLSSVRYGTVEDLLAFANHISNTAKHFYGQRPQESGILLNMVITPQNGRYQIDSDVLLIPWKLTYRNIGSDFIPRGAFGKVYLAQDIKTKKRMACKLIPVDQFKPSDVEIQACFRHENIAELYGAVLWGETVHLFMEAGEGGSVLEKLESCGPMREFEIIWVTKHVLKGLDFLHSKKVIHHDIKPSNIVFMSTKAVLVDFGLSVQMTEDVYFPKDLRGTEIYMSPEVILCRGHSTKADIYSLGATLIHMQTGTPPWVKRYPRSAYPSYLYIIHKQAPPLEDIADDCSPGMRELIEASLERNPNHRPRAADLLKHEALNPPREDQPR

Row | SMILES | IC50 ([1]; IC50 HTRF) [nM] | EC50 [2, 3] [nM] | IC50 ([1]; read-out: IC50 HTRF) [nM] | EC50 [2, 4] [nM]
1 | Cc1ncccc1[C@H](Nc1cc(Cl)c2ncc(C#N)c(Nc3cccc(Cl)c3)c2c1)c1cn(C(C)C)nn1 [Example 225, (S)-8-chloro-4-((3-chlorophenyl)amino)-6-(((1-isopropyl-1H-1,2,3-triazol-4-yl)(2-methylpyridin-3-yl)methyl)amino)quinoline-3-carbonitrile] | 10 | 1490 |  | 
2 | CC(C)(C)CNc1c(C#N)cnc2c(C#N)cc(N[C@H](c3cn(C4(C(F)(F)F)CC4)nn3)c3cncc4ccccc34)cc12 [Example 673, (S)-6-((isoquinolin-4-yl(1-(1-(trifluoromethyl)cyclopropyl)-1H-1,2,3-triazol-4-yl)methyl)amino)-4-(neopentylamino)quinoline-3,8-dicarbonitrile] | 142 | 808 |  | 
3 | CC(C)n1cc([C@@H](Nc2cc(Cl)c3ncc(C#N)c(N[C@H](CCO)c4ccccc4)c3c2)c2cccnc2)nn1 [Example 185, 8-chloro-4-(((R)-3-hydroxy-1-phenylpropyl)amino)-6-(((S)-(1-isopropyl-1H-1,2,3-triazol-4-yl)(pyridin-3-yl)methyl)amino)quinoline-3-carbonitrile] | 305 | 9740 |  | 
4 | C[C@@H](Nc1c(C#N)cnc2c(Cl)cc(N[C@@H](c3cccnc3)c3cn(C4CCN(C(C)(C)C)CC4)nn3)cc12)c1ccccc1 [Example 259, 6-(((S)-(1-(1-(tert-butyl)piperidin-4-yl)-1H-1,2,3-triazol-4-yl)(pyridin-3-yl)methyl)amino)-8-chloro-4-(((R)-1-phenylethyl)amino)quinoline-3-carbonitrile] | 6 | 158 |  | 
5 | Cc1cncc2cccc([C@H](Nc3cc(Cl)c4ncc(C#N)c(NCC(C)(C)C)c4c3)c3cn(C4(C(F)(F)F)CC4)nn3)c12 [Example 659, (S)-8-chloro-6-(((4-methylisoquinolin-5-yl)(1-(1-(trifluoromethyl)cyclopropyl)-1H-1,2,3-triazol-4-yl)methyl)amino)-4-(neopentylamino)quinoline-3-carbonitrile] | 41 | 279 |  | 
6 | N#Cc1cnc2c(Cl)cc(N[C@@H](c3cccnc3)c3cn(CCF)nn3)cc2c1Nc1cnc(F)c(F)c1 [Example 189, (S)-8-chloro-4-((5,6-difluoropyridin-3-yl)amino)-6-(((1-(2-fluoroethyl)-1H-1,2,3-triazol-4-yl)(pyridin-3-yl)methyl)amino)quinoline-3-carbonitrile] | 8 | 1060 |  | 
7 | CC[C@@H](Nc1c(C#N)cnc2c(Cl)cc(N[C@@H](c3cccnc3)c3cn([C@H]4[C@@H]5CN(C6COC6)C[C@@H]54)nn3)cc12)c1ccccc1 [Example 174, 8-chloro-6-(((S)-(1-((1 R,5S,6s)-3-(oxetan-3-yl)-3-azabicyclo[3.1,0]hexan-6-yl)-1H-1,2,3-triazol-4-yl)(pyridin-3-yl)methyl)amino)-4-(((R)-1-phenylpropyl)amino)quinoline-3-carbonitrile] |  |  | 2 | 54
8 | Cc1nc(F)ccc1C(Nc1cc(Cl)c2ncc(C#N)c(NCC(C)(C)C)c2c1)c1cn(C)nn1 (stereo not shown) [Example 791, 8-chloro-6-(((6-fluoro-2-methylpyridin-3-yl)(1-methyl-1H-1,2,3-triazol-4-yl)methyl)amino)-4-(neopentylamino)quinoline-3-carbonitrile] | 22 | 242 |  | 
9 | Cc1nc(F)ccc1[C@H](Nc1cc(Cl)c2ncc(C#N)c(NCC(C)(C)C)c2c1)c1cn(C(C)(C)C)nn1 [Example 530, (S)-6-(((1-(tert-butyl)-1H-1,2,3-triazol-4-yl)(6-fluoro-2-methylpyridin-3-yl)methyl- )amino)-8-chloro-4-(neopentylamino)-quinoline-3-carbonitrile] |  |  | 3 | 70
10 | CC(C)(C)CNc1c(C#N)cnc2c(Cl)cc(N[C@H](c3cn(C4(C(F)(F)F)CC4)nn3)c3cccc4c(=O)n(CC(F)F)ccc34)cc12 [Example 770, (S)-8-chloro-6-(((2-(2,2-difluoroethyl)-1-oxo-1,2-dihydroisoquinolin-5-yl)(1-(1-(trifluoromethyl)cyclopropyl)-1H-1,2,3-triazol-4-yl)methyl)amino)-4-(neopentylamino)quinoline-3-carbonitrile] | 4 | 108 |  | 
11 | CC(C)(C)ONc1c(C#N)cnc2c(C#N)cc(N[C@H](c3cn(C4CC4)nn3)c3cccc4ncsc34)cc12 [Example 456, (S)-6-((benzo[d]thiazol-7-yl(1-cyclopropyl-1H-1,2,3-triazol-4-yl)methyl)amino)-4-(tert-butoxyamino)quinoline-3,8-dicarbonitrile] | 51 | 1000 |  | 
12 | CC(C)(C)n1cc([C@@H](Nc2cc(Cl)c3ncc(C#N)c(Nc4ccc(F)c(Cl)c4)c3c2)c2cocn2)nn1 [Example 310, (S)-6-(((1-(tert-butyl)-1H-1,2,3-triazol-4-yl)(oxazol-4-yl)methyl)amino)-8-chloro-4-((3-chloro-4-fluorophenyl)amino)-quinoline-3-carbonitrile] | 40 | 2340 |  | 
13 | N#Cc1cnc2c(Cl)cc(N[C@@H](c3cccnc3)c3cn(C4COC4)nn3)cc2c1NC1CCOCC1 [Example 201, (S)-8-chloro-6-(((1-(oxetan-3-yl)-1H-1,2,3-triazol-4-yl)(pyridin-3-yl)methyl)amino)-4-((tetrahydro-2H-pyran-4-yl)amino)quinoline-3-carbonitrile] | 56 | 5600 |  | 
14 | Cc1nc(F)ccc1[C@H](Nc1cc(Cl)c2ncc(C#N)c(NCC(C)(C)C(F)(F)F)c2c1)c1cn(C2(C)CC2)nn1 [Example 720, (S)-8-chloro-6-(((6-fluoro-2-methylpyridin-3-yl)(1-(1-methylcyclopropyl)-1H-1,2,3-triazol-4-yl)methyl)amino)-4-((3,3,3-trifluoro-2,2-dimethylpropyl)amino)-quinoline-3-carbonitrile] | 2 | 35 |  | 
15 | CC[C@@H](Nc1c(C#N)cnc2c(Cl)cc(N[C@@H](c3cccnc3)c3cn(CCF)nn3)cc12)c1ccccc1 [Example 177, 8-chloro-6-(((S)-(1-(2-fluoroethyl)-1H-1,2,3-triazol-4-yl)(pyridin-3-yl)methyl)amino)-4-(((R)-1-phenylpropyl)amino)quinoline-3-carbonitrile] | 2 | 79 |  | 
16 | Cc1nc(F)ccc1[C@H](Nc1cc(C#N)c2ncc(C#N)c(NCC(C)(C)C)c2c1)c1cn(C2(CO)CC2)nn1 [Example 610, (S)-6-(((6-fluoro-2-methylpyridin-3-yl)(1-(1-(hydroxymethyl)cyclopropyl)-1H-1,2,3-triazol-4-yl)methyl)amino)-4-(neopentylamino)quinoline-3,8-dicarbonitrile] | 2 | 199 |  | 
17 | Cc1nc(F)ccc1[C@H](Nc1cc(Cl)c2ncc(C#N)c(NCC(C)(C)C)c2c1)c1cn(C2(C(F)(F)F)CC2)nn1 [Example 432, (S)-8-chloro-6-(((6-fluoro-2-methyl-pyridin-3-yl)(1-(1-(trifluoromethyl)-cyclopropyl)-1H-1,2,3-triazol-4-yl)methyl)amino)-4-(neopentylamino)-quinoline-3-carbonitrile] | 6 | 89 |  | 
